Tests used:
Format in all cases: in vitro ADME
CYP1A2 = biological target: T1, CYP1A2 (Homo sapiens, UniProt P05177); experiment: Tenatoprazole oxidation by recombinant CYP1A2; conditions: substrate tenatoprazole 0.10 mM, 0.20 μM CYP1A2; no apparent formation
T1 construct: made in house; host or cells: Escherichia coli (membrane fractions)
T1 sequence (P05177 1-516): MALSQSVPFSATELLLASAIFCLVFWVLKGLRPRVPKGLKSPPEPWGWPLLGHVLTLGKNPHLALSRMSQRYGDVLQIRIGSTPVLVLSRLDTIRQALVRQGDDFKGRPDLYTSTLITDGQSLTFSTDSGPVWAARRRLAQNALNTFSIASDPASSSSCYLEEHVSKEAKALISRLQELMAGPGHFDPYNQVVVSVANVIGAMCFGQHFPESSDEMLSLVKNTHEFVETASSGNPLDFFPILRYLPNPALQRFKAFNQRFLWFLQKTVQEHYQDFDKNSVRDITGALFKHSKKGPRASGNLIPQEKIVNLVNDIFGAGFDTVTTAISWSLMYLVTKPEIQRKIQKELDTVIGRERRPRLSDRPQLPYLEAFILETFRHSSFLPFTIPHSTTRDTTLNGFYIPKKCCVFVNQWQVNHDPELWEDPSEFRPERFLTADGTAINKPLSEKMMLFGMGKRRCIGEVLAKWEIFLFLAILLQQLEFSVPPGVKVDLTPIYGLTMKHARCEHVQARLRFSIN
Protocol: (§1) Pooled liver microsomes from human samples were obtained from ThermoFisher Scientific (Waltham, MA, USA). Recombinant human P450s were heterologously expressed in Escherichia coli with a pCW vector containing human P450 cDNA (CYP 3A4, 2C9, 2C19, 1A2, 1B1, 2E1, 2D6, and 2A6) and rat NADPH-P450 reductase (CPR). Membrane fractions expressing both P450 and CPR of E. coli were prepared as described previously and were used for the catalytic activity assays.
(§2) The reaction mixture included 0.20 μM P450, 0.40 μM CPR, and tenatoprazole (0.10 mM) in 0.25 mL of 0.10 M potassium phosphate buffer (pH 7.4). The reaction was started by adding NGS and the incubation was continued for the indicated time at 37 °C. Incubation was then stopped by adding ice-chilled ethyl acetate (0.50 mL) and omeprazole (IS) was added to a final concentration of 20 μM. The mixtures were vortexed for 2 min, centrifuged at 1000× g for 20 min, and then the organic layer was taken for drying under nitrogen gas stream. The residues were dissolved in 180 μL of HPLC mobile phase and 30 μL was injected onto a Gemini C18 column (4.6 × 150 mm, 5 μm; Phenomenex, Torrance, CA, USA). The products formed were analyzed by HPLC at A302. The HPLC profile of the authentic chemicals (i.e., tenatoprazole, tenatoprazole sulfide, and their metabolites) were used to identify the major metabolites of tenatoprazole and tenatoprazole sulfide produced by the recombinant P450s.
(§3) Figure S6. HPLC analyses of the products derived from the oxidation of tenatoprazole catalyzed by recombinant human P450s. The reaction mixture included 0.20 μM P450, 0.40 μM CPR, and 0.10 mM tenatoprazole in 0.25 mL of potassium phosphate buffer (0.10 M, pH 7.4). The reaction was started by adding an NGS at 37 °C for 60 min. (A) CYP1A2; (B) CYP1B1; (C) CYP2A6; (D) CYP2C9; (E) CYP2D6; (F) CYP2E1. The arrows with solid and broken lines indicate the retention times of 5’-OH tenatoprazole (6.6 min) and 5’-OH tenatoprazole sulfide (8.4 min), respectively.
(§4) (1 picture or pasted object on this page, not shown here)

CYP2E1 = biological target: T2, CYP2E1 (Homo sapiens, UniProt P05181); experiment: Tenatoprazole oxidation by recombinant CYP2E1; conditions: substrate tenatoprazole 0.10 mM, 0.20 μM CYP2E1; no apparent formation
T2 construct: made in house; host or cells: Escherichia coli (membrane fractions)
T2 sequence (P05181 whole entry): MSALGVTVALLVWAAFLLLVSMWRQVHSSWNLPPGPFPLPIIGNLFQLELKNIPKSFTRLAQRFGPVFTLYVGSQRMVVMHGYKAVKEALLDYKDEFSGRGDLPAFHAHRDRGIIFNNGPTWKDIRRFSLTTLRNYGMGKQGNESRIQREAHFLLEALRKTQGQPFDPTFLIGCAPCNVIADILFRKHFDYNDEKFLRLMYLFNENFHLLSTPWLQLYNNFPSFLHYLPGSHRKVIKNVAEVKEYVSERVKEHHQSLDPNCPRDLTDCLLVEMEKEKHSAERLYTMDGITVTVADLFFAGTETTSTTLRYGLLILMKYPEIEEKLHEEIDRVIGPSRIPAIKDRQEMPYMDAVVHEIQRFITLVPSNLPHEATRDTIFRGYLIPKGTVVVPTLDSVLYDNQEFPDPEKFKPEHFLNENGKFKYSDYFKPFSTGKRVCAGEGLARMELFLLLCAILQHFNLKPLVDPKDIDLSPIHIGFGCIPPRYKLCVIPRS
Protocol: as §1, §2, §3, §4

CYP2A6 = biological target: T3, CYP2A6 (Homo sapiens, UniProt P11509); experiment: Tenatoprazole oxidation by recombinant CYP2A6; conditions: substrate tenatoprazole 0.10 mM, 0.20 μM CYP2A6; no apparent formation
T3 construct: made in house; host or cells: Escherichia coli (membrane fractions)
T3 sequence (P11509 1-494): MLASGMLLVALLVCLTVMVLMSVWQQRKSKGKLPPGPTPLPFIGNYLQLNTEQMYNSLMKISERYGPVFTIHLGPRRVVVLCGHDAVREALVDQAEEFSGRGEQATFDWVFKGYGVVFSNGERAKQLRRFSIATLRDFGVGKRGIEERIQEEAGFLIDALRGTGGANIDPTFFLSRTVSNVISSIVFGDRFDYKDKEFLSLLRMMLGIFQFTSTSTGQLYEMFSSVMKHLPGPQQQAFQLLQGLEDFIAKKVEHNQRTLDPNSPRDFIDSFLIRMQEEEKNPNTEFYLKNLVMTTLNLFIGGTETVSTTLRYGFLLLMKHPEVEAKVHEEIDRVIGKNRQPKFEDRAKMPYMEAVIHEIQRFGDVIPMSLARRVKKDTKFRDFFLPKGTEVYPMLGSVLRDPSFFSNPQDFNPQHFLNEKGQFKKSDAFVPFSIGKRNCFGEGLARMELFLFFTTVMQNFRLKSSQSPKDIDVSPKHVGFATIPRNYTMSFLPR
Protocol: as §1, §2, §3, §4

SMILES	formation rate of metabolite (CYP1A2)	formation rate of metabolite (CYP2E1)	formation rate of metabolite (CYP2A6)
COc1ccc2[nH]c(S(=O)(=O)Cc3ncc(C)c(OC)c3C)nc2n1 [tenatoprazole sulfone]	< 0.05 nmol product/min/nmol P450	< 0.05 nmol product/min/nmol P450	< 0.05 nmol product/min/nmol P450
COc1ccc2[nH]c([S+]([O-])Cc3ncc(CO)c(OC)c3C)nc2n1 (stereo not drawn) [5′-OH tenatoprazole, 5′-hydroxy tenatoprazole]	< 0.05 nmol product/min/nmol P450	< 0.05 nmol product/min/nmol P450	< 0.05 nmol product/min/nmol P450
